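48-hour exposure; five concentrations; linearly interpolated endpoints. Here, GI50 denotes the concentration required for 50% inhibition of growth. TGI is the concentration that stops growth completely.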 Where a SMILES comes first, the peptide text is derived from it. [ ]: non-standard residue; d: D form. 2Nal = N[CH](Cc1ccc2ccccc2c1)C(=O)O
Tests used:
Experiment in all cases: NCI-60 cell line screen, 48 h
A549 NSCLC = system: A549 NSCLC
CCRF-CEM leukemia = system: CCRF-CEM leukemia
COLO 205 colon = system: COLO 205 colon
HT29 colon = system: HT29 colon
IGROV1 ovarian = system: IGROV1 ovarian
K-562 leukemia = system: K-562 leukemia
MALME-3M melanoma = system: MALME-3M melanoma
NCI-H23 lung = system: NCI-H23 lung
SNB-75 CNS = system: SNB-75 CNS
UACC-62 melanoma = system: UACC-62 melanoma

| Structure (SMILES) | GI50 (A549 NSCLC) | TGI (A549 NSCLC) | GI50 (CCRF-CEM leukemia) | TGI (CCRF-CEM leukemia) | GI50 (COLO 205 colon) | TGI (COLO 205 colon) | GI50 (HT29 colon) | TGI (HT29 colon) | GI50 (IGROV1 ovarian) | TGI (IGROV1 ovarian) | GI50 (K-562 leukemia) | TGI (K-562 leukemia) | GI50 (MALME-3M melanoma) | TGI (MALME-3M melanoma) | GI50 (NCI-H23 lung) | TGI (NCI-H23 lung) | GI50 (SNB-75 CNS) | TGI (SNB-75 CNS) | GI50 (UACC-62 melanoma) | TGI (UACC-62 melanoma) |
| --- | --- | --- | --- | --- | --- | --- | --- | --- | --- | --- | --- | --- | --- | --- | --- | --- | --- | --- | --- | --- |
| O=C(Nc1cccc(Cl)c1)c1cc(N=Nc2ccc([N+](=O)[O-])cc2Cl)ccc1O | 3.01 µM | > 100 µM | 2.16 µM | 5.81 µM | 3.19 µM | 11 µM | 2.83 µM | 9.5 µM | 3.12 µM | 19 µM | 1.95 µM | 4.72 µM | 2.17 µM | 5.92 µM | 1.93 µM | 4.58 µM | 2.65 µM | 20.5 µM | 2.44 µM | 6.65 µM |
| COC(=O)C(C(=O)C(=O)Nc1ccc(OC)cc1[N+](=O)[O-])c1nc2cc(C)c(C)cc2[nH]c1=O (configuration not stated) |  | > 100 µM |  | > 100 µM |  | > 100 µM |  | > 100 µM |  | > 100 µM |  | > 100 µM |  | > 100 µM |  | > 100 µM |  | > 100 µM |  | > 100 µM |
| CC(C)CCC(=O)[C@@H](C)[C@H]1[C@@H](OC2OCC(O)C(O)C2NS(C)(=O)=O)C[C@H]2[C@@H]3CC=C4C[C@@H](O)CC[C@]4(C)[C@H]3CC[C@]12C (some centres not stated) | 3.55 µM | 11.5 µM | 0.424 µM | 2.47 µM | 1.42 µM | 5.92 µM | 3.02 µM | 12.5 µM | 2.22 µM | > 40 µM | 1.37 µM | 5.55 µM | 0.91 µM | 4.29 µM | 3.3 µM | 12.7 µM | 0.571 µM | 9.58 µM | 0.79 µM | 1.95 µM |
| COc1cc(CC(C(=O)O)C(=O)O)c(OC)cc1CC(C(=O)O)C(=O)O |  | > 100 µM |  | > 100 µM |  | > 100 µM |  | > 100 µM |  | > 100 µM |  | > 100 µM |  | > 100 µM |  | > 100 µM |  | > 100 µM |  | > 100 µM |
| CCOc1c(C#N)c2c(N)ncnc2n1C1OC(CO)C(O)C1O (configuration not stated) | 2.27 µM | > 100 µM | 3.18 µM | 24 µM | 2.17 µM | 10 µM | 2.89 µM | > 34.1 µM | 0.761 µM | 2.54 µM | 1.5 µM | 16.4 µM | 3.62 µM | 24.2 µM | 3.69 µM | 34.4 µM | 5.61 µM | > 76 µM | 2.76 µM | 10 µM |
| O=c1c(-c2ccc(O)cc2)coc2cc(OC3OC(CO)C(O)C(O)C3O)cc(O)c12 (configuration not stated) | > 10 µM | > 100 µM | > 10 µM | > 100 µM | > 100 µM | > 100 µM |  | > 100 µM | > 100 µM | > 100 µM | > 100 µM | > 100 µM | > 100 µM | > 100 µM | > 100 µM | > 100 µM | > 10 µM | > 100 µM | > 10 µM | > 100 µM |
| O=C(Nc1ccc2c(c1)OCO2)C(=O)c1c[nH]c2cc(F)ccc12 | 2.81 µM | > 100 µM | 5.33 µM | > 100 µM | 13.5 µM | > 100 µM | 8.04 µM | > 100 µM | 12.6 µM | > 100 µM | 0.6 µM | 20.8 µM | 3 µM | 8.61 µM | 13.9 µM | 55.4 µM | 2.6 µM | 12.1 µM | 0.238 µM | 1.58 µM |
| CCOC(=O)c1cc(-c2ccc(OC)c(OC)c2)[nH]c1N/N=C/c1c(Cl)cccc1Cl | 3.06 µM | > 100 µM | 2.22 µM | > 100 µM | 2.9 µM | > 100 µM | 0.913 µM | 6.28 µM | 2.45 µM | 30.4 µM | 1.69 µM | > 100 µM | 2.88 µM | 16.7 µM | 2.97 µM | 14 µM | 1.85 µM | 5.94 µM | 0.704 µM | 6.64 µM |
| CC(C)(C)NC/C(=C\c1ccccc1)C(=O)c1ccccc1 | 2.75 µM | 8.23 µM | 0.936 µM | 51.7 µM | 1.34 µM | 2.88 µM | 0.9 µM | 3.52 µM | 2.78 µM | 8.99 µM | 2.24 µM | 12.4 µM | 2.04 µM | 4.88 µM | 1.77 µM | 5.02 µM | 4.67 µM | 17.9 µM | 1.51 µM | 4.91 µM |
| C=C1C(=O)OC2CC3(C)CCCC(C)C3=CC12 (configuration not stated) |  | 26.8 µM |  | 4.53 µM |  | 2.56 µM |  | 14.2 µM |  | 22.4 µM |  | 6.61 µM |  | 16.7 µM |  | 19.9 µM |  | 11.2 µM |  | 16.2 µM |
| COc1ccc(/C=c2/sc3n(c2=O)NC(c2ccc(Cl)cc2)NN=3)cc1 (configuration not stated) |  | > 100 µM |  | > 100 µM |  | > 100 µM |  | > 100 µM |  | > 100 µM |  | > 100 µM |  | > 100 µM |  | > 100 µM |  | 78.1 µM |  | > 100 µM |
| COc1cc2ncn(-c3cc(OCc4ccccc4C(F)(F)F)c(C(C)=O)s3)c2cc1OC | > 25 µM | > 25 µM | > 25 µM | > 25 µM | > 25 µM | > 25 µM | > 25 µM | > 25 µM | > 25 µM | > 25 µM | > 25 µM | > 25 µM | > 16.8 µM | > 25 µM | > 25 µM | > 25 µM | 19 µM | > 25 µM | > 25 µM | > 25 µM |
| CC(O)CN1c2ccccc2Sc2ccc(Cl)cc21 (configuration not stated) |  | > 10 µM |  | > 10 µM |  | > 10 µM |  | > 10 µM |  | > 10 µM |  | > 10 µM |  | > 10 µM |  | > 10 µM |  | > 10 µM |  | > 10 µM |
| Cc1nc(Nc2ccccc2)sc1C(=O)CC(=O)C(=O)NC12CC3CC(CC(C3)C1)C2 |  | > 100 µM |  | > 100 µM |  | > 100 µM |  | > 100 µM |  | > 100 µM |  | > 100 µM |  | > 100 µM |  | > 100 µM |  | > 100 µM |  | > 100 µM |
| CC(C)C(NC(=O)C(CCCCN)NC(=O)C(Cc1c[nH]c2ccccc12)NC(=O)C(Cc1ccc(O)cc1)NC(=O)C(CS)NC(=O)C(N)Cc1ccc2ccccc2c1)C(=O)NC(CS)C(=O)NC(C(N)=O)C(C)O (configuration not stated) (H-[2Nal]CYWKVCT-NH2; configuration not given here) | > 100 µM | > 100 µM | > 100 µM | > 100 µM | > 100 µM | > 100 µM | > 100 µM | > 100 µM | > 100 µM | > 100 µM | > 100 µM | > 100 µM |  | > 12.5 µM | > 100 µM | > 100 µM |  | > 100 µM | > 100 µM | > 100 µM |
| CN(C)CCNC(=O)c1cccc2ncc(-c3ccccc3)nc12 |  | > 74.9 µM |  | 56.8 µM |  | 15.5 µM |  | 52.4 µM |  | > 74.6 µM |  | 61.9 µM |  | 26.5 µM |  | 32.2 µM |  | 32.9 µM |  | 27.2 µM |
| NNC(=S)Nc1cccc(Cl)c1 |  | > 100 µM |  | > 100 µM |  | > 100 µM |  | > 100 µM |  | > 100 µM |  | > 100 µM |  | > 100 µM |  | > 100 µM |  | > 100 µM |  | > 100 µM |
| O=C(NN1C(=O)CSC12CCCC2)C(O)c1ccccc1 (configuration not stated) | > 100 µM | > 100 µM | > 100 µM | > 100 µM | > 100 µM | > 100 µM | > 100 µM | > 100 µM | > 100 µM | > 100 µM | > 100 µM | > 100 µM | > 100 µM | > 100 µM | > 100 µM | > 100 µM | > 100 µM | > 100 µM | > 100 µM | > 100 µM |
| O=C(Cn1c(C(=O)c2ccccc2)nc2ccccc21)c1ccc(F)cc1 | 22.9 µM | > 100 µM | 5.75 µM | > 100 µM | 17.9 µM | > 64.5 µM | 3.51 µM | > 100 µM | 10.9 µM | > 100 µM | 2.86 µM | > 100 µM | 11.1 µM | > 100 µM | 19.4 µM | > 100 µM | 10.5 µM | > 100 µM | 11.7 µM | > 100 µM |
